Source: US20260297128A1, “PEPTOID COMPOSITIONS TARGETING RAS PROTEINS AND METHODS OF TREATMENT OF CANCER USING THE SAME” (University of Houston System, priority 2023, published 2026)
Non-standard residues stand in square brackets, D forms with d. Residues, ends and D or L forms follow the SMILES beside them. *: point of attachment. X2 = COc1ccc(CN(CC(=O)N(CCCOC(C)C)CC(=O)*)C(=O)CCC(=O)c2cccs2)cc1; N(4-MeOBn)Gly = COc1ccc(CNCC(=O)O)cc1; N((CH2)3OiPr)Gly = CC(C)OCCCNCC(=O)O; Stearoyl = CCCCCCCCCCCCCCCCCC(=O)*; Palmitoyl = CCCCCCCCCCCCCCCC(=O)*; Myristoyl = CCCCCCCCCCCCCC(=O)*; Gly(N-cHex) = O=C(O)CNC1CCCCC1; X1 = O=C(CCC(=O)*)c1cccs1; Nlys = NCCCCNCC(=O)O; Nme = COCCNCC(=O)O

Assays:
H441 cells [1] = assay: MTS cell viability assay; type: cell-based; conditions: H441 (KRASG12V); vs PKR1
Description: Three cancer cell lines (H441, H358, and H1993) harboring KRAS G12V, KRAS G12C, and WT KRAS, respectively, were subjected to treatment with the fatty acid conjugated-PKR1. […] FIGS. 6A-6C are graphical representations of the effects of the fatty acid conjugated PKR1 derivatives on cell survival and proliferation of (A) H441, (B) H358, and (C) H1993 cell lines. FIG. 6D presents the IC50 values of fatty acid conjugated PKR1 derivatives in H441, H1993, and H358 cell lines. […] As KRAS is predominant in the membrane consisting of unsaturated fatty acids, conjugating unsaturated fatty acids to PKR1 can facilitate its anchoring onto the membrane, thereby improving efficacy.
To examine the capacity of PKR1 derivatives as broad-spectrum KRAS inhibitors, MTS assays were conducted in various types of cell lines representing different cancer types, KRAS mutations, and KRAS gene zygosity (Table 1). IC50 values for each cell line were obtained from the MTS assay with PKR1-C16 treatment.

H441 cells [2] = assay: Cell viability, single and combination treatment with MEK/ERK inhibitors; type: cell-based; conditions: Homo sapiens, NCI-H441; single treatment, 3 D incubation; heterozygous KRAS G12V
Description: Provided herein are pan-KRAS inhibitors that can enhance the sensitivity of heterozygous KRAS mutant cells to KRAS downstream inhibitors, thereby overcoming limitations in their use for cancer therapy. FIG. 11A is an illustration presenting that heterozygous KRAS mutant cells are resistant to the inhibition of KRAS downstream signaling while homozygous KRAS mutant cells are sensitive to such inhibition, therefore blocking wild type KRAS potentially re-sensitizes the heterozygous KRAS mutant cells to the inhibition of KRAS downstream signaling. Cell viability of H441 cells harboring heterozygous KRAS G12V were assessed in combination treatment with PKR1-C16. FIG. 11B is a graphical representation presenting the cell viability of H441 harboring heterozygous KRAS G12V with co-treatments of Trametinib (upper panel) and Ulixertinib with PKR1-C16 (lower panel). […] Concentration gradients of Trametinib and Ulixertinib were co-treated with 1, 3, 5, and 7 μM of PKR1-C16, respectively. […] Blocking WT KRAS enables the re-sensitization of heterozygous KRAS mutant cells to the inhibitors of KRAS downstream signaling.

H2122 cells = conditions: homozygous KRAS G12C (H2122) vs heterozygous KRAS G12C (H23); cited from earlier work

For `CCCCCCCCCCCCCC(=O)NCCCC[C@H](NC(=O)[C@H](C)NC(=O)CN(CCOC)C(=O)CN(CCCCN)C(=O)CN(CCCCN)C(=O)CN(C(=O)CN(CCCOC(C)C)C(=O)[C@H](CCCCNC(=O)CN(CCCOC(C)C)C(=O)CN(Cc1ccc(OC)cc1)C(=O)CCC(=O)c1cccs1)NC(=O)CN(CCCOC(C)C)C(=O)CN(Cc1ccc(OC)cc1)C(=O)CCC(=O)c1cccs1)C1CCCCC1)C(N)=O` [PKR1-C14] (X1-[N(4-MeOBn)Gly][N((CH2)3OiPr)Gly]K(X2)[N((CH2)3OiPr)Gly][Gly(N-cHex)][Nlys][Nlys][Nme]AK(Myristoyl)-NH2), the increase in potency (H441 cells [1]) was “over 25 fold”.

In the case of `CCCCCCCCCCCCCCCC(=O)NCCCC[C@H](NC(=O)[C@H](C)NC(=O)CN(CCOC)C(=O)CN(CCCCN)C(=O)CN(CCCCN)C(=O)CN(C(=O)CN(CCCOC(C)C)C(=O)[C@H](CCCCNC(=O)CN(CCCOC(C)C)C(=O)CN(Cc1ccc(OC)cc1)C(=O)CCC(=O)c1cccs1)NC(=O)CN(CCCOC(C)C)C(=O)CN(Cc1ccc(OC)cc1)C(=O)CCC(=O)c1cccs1)C1CCCCC1)C(N)=O` [PKR1-C16] (X1-[N(4-MeOBn)Gly][N((CH2)3OiPr)Gly]K(X2)[N((CH2)3OiPr)Gly][Gly(N-cHex)][Nlys][Nlys][Nme]AK(Palmitoyl)-NH2), the increase in potency (H441 cells [1]) is reported as “over 25 fold”.

In the case of `CCCCCCCCCCCCCCCCCC(=O)NCCCC[C@H](NC(=O)[C@H](C)NC(=O)CN(CCOC)C(=O)CN(CCCCN)C(=O)CN(CCCCN)C(=O)CN(C(=O)CN(CCCOC(C)C)C(=O)[C@H](CCCCNC(=O)CN(CCCOC(C)C)C(=O)CN(Cc1ccc(OC)cc1)C(=O)CCC(=O)c1cccs1)NC(=O)CN(CCCOC(C)C)C(=O)CN(Cc1ccc(OC)cc1)C(=O)CCC(=O)c1cccs1)C1CCCCC1)C(N)=O` [PKR1-C18] (X1-[N(4-MeOBn)Gly][N((CH2)3OiPr)Gly]K(X2)[N((CH2)3OiPr)Gly][Gly(N-cHex)][Nlys][Nlys][Nme]AK(Stearoyl)-NH2), the increase in potency (H441 cells [1]) is reported as “over 25 fold”.

For `CC(=O)Nc1cccc(-n2c(=O)n(C3CC3)c(=O)c3c(Nc4ccc(I)cc4F)n(C)c(=O)c(C)c32)c1` [Trametinib, trametinib], the IC50 (H441 cells [2]) is listed as 10.4 µM and the “potency in H2122 compared with H23 cells” value (H2122 cells) is listed as “higher potency in H2122 cells”.

For `CC(C)Nc1cc(-c2c[nH]c(C(=O)N[C@H](CO)c3cccc(Cl)c3)c2)c(Cl)cn1` [Ulixertinib, ulixertinib], the IC50 (H441 cells [2]) is listed as 17 µM and the “potency in H2122 compared with H23 cells” value (H2122 cells) is listed as “higher potency in H2122 cells”.
